Data: paper PMC12756723, “Derivatives of the Cashew Nut Shell Liquid as Ligands of Pseudomonas aeruginosa Phenazine Protein D (PaPhzD)” (ACS Omega, 2025)

What was measured:
phzA2-G2 = assay: lacZ transcriptional fusion, phzA2-G2 operon; format: cell-based, Pseudomonas aeruginosa; conditions: late exponential phase
Protocol: P. aeruginosa harbors two identically structured operons in its genome, which encode most of the enzymes responsible for PYO synthesis (phzA1-G1 and phzA2-G2) but have slightly different regulatory regions 1. lacZ transcriptional fusions for each operon were assayed at mid-log and late exponential phases (OD=1 and 3, respectively). At mid-log cultures, the expression of both QS-regulated operons is extremely low, and it increases more than 1000-fold at late exponential phase for phzA1-G1 and 4-fold for phzA2-G2, as expected. Addition of compounds 2 and 4 had no effect for both operons in the late […]
synthesis is not related to inhibition at the transcriptional level.
Figure 7S: Effect of LDT10 (2) and LDT13 (3) on the phzA1-G1 (A) and phzA2-G2 […]
(1 picture or pasted object on this page, not shown here)

PaPhzD = target: T1, PaPhzD (Pseudomonas aeruginosa, UniProt P0DPB9); assay: Thermal shift assay (TSA) with SYPRO Orange; format: binding
T1 construct: inferred from Ni-NTA purification with imidazole elution; made in house; host or cells: E. coli BL21(DE3)
Protocol: Thermal shift assays were performed on an Applied Biosystems 7500 RT-PCR (Applied Biosystems, Foster City, CA USA). All experiments were carried out in triplicate with 1 °C per minute increments in temperatures that range from 25 to 85 °C in 96-well PCR plates (PCR plates 96-well, BioRad), sealed with transparent capping strips (Flatcap strips, BioRad). The fluorescence of SYPRO Orange (Invitrogen S6650) was monitored (excitation wavelength, 492 nm; emission wavelength, 610 nm). Before the compounds’ screening, protein and DMSO concentrations were evaluated to improve PaPhzD stability throughout the assay.
The protein concentration required for an optimal signal-to-noise ratio (>5-fold) was evaluated by analysis of the raw fluorescence curves at different PaPhzD concentrations (1–5 μM). Then, the effect of DMSO (0–10%) over PaPhzD T m was evaluated at the optimal protein concentration. Fluorescence raw data were recorded using Applied Biosystems 7500 Software v2.0 and then processed with NAMI software to calculate T m values by the first-derivative method.
LDT compounds were screened at a final concentration of 50 μM. Briefly, 1 μL of each compound (1 mM DMSO stock solution) was added to a mixed solution containing 5 μM PaPhzD diluted in 50 mM Tris–HCl buffer (pH 8.0) containing 100 mM NaCl, 1 mM DTT, and SYPRO Orange dye (Invitrogen S6650) (1:100 dilution). Each compound was assayed in triplicate, and ΔT m values were calculated by comparison to reference wells that had 1 μL DMSO instead of the LDT compounds. Differences between T m values (ΔT m) were considered statistically significant when p < 0.01, according to the one-way ANOVA followed by Dunnett’s post-test for multiple comparisons, available in GraphPad Prism 9.0 software (GraphPad Software, San Diego, CA, USA, www.graphpad.com).
Compounds with ΔT m values statistically different from the reference were also assayed at different concentrations (ranging from 6.25 to 100 μM) to evaluate the concentration–response behavior. The ΔT m versus concentration plots were generated using the nonlinear regression method available in GraphPad Prism version 9.0.

T1 sequence (P0DPB9 whole entry): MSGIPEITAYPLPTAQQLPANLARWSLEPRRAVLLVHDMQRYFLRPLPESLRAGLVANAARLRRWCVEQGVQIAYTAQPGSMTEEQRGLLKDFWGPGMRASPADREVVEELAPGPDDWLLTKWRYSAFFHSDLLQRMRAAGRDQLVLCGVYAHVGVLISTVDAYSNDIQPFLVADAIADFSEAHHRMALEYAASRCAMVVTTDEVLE

## CCCCCCCCCCCCCCCc1cccc(O)c1 [Compound 2]
phzA2-G2
  Effect on phzA2-G2 transcription: no effect
PaPhzD; 50 μM compound, 5 μM PaPhzD, vs DMSO reference
  ΔTm of PaPhzD: −3.8 °C
PaPhzD; 6.25 to 100 μM
  Concentration–response behavior of ΔTm: clear concentration–response behavior
